We go through four compounds from ChEMBL document CHEMBL5346892, “Design and synthesis of benzochromene derivatives as AcrB inhibitors for the reversal of bacterial multidrug resistance” (Eur J Med Chem, 2023).

The test system of assay [1] is Escherichia coli. Briefly: Synergistic antibacterial activity against wild type Escherichia coli BW25113 assessed as fold decrease in erythromycin MIC at 16 to 64 microg/ml incubated for 18 hrs by checkboard based microplate reader analysis. The assay is classed as functional. The settings on record: dose 16-64 µg/ml.
In assay [2] the test system is Escherichia coli. Briefly: Synergistic antibacterial activity against wild type Escherichia coli BW25113 assessed as minocycline MIC at 4 microg/ml incubated for 18 hrs in presence of colistin by broth dilution assay. In kind it is functional. The following applies: dose 4 µg/ml. (In broth dilution the organism is exposed to a series of concentrations in liquid medium.)

The test system of assay [3] is Escherichia coli. Briefly: Synergistic antibacterial activity against wild type Escherichia coli BW25113 assessed as fold decrease in minocycline MIC at 128 microg/ml incubated for 18 hrs by checkboard based microplate reader analysis. The assay is classed as functional. The following applies: dose 128 µg/ml.
Assay [4] deals with Escherichia coli. In words: Synergistic antibacterial activity against wild type Escherichia coli BW25113 assessed as fold decrease in erythromycin MIC at 64 microg/ml incubated for 18 hrs by checkboard based microplate reader analysis. In kind it is functional. The settings on record: dose 64 µg/ml.
Assay [5] has as its system Escherichia coli. In words: Synergistic antibacterial activity against wild type Escherichia coli BW25113 assessed as levofloxacin MIC at 4 microg/ml incubated for 18 hrs in presence of colistin by broth dilution assay. The assay is classed as functional. The following applies: dose 4 µg/ml.
Assay [6] relates to Escherichia coli. In words: Synergistic antibacterial activity against wild type Escherichia coli BW25113 assessed as erythromycin MIC at 64 microg/ml incubated for 18 hrs by broth dilution assay. The assay is classed as functional. The settings on record: dose 64 µg/ml.
For assay [7], the target named is T1, Multidrug efflux pump subunit AcrB (Escherichia coli (strain K12)) (UniProt P31224).
T1 sequence (whole entry): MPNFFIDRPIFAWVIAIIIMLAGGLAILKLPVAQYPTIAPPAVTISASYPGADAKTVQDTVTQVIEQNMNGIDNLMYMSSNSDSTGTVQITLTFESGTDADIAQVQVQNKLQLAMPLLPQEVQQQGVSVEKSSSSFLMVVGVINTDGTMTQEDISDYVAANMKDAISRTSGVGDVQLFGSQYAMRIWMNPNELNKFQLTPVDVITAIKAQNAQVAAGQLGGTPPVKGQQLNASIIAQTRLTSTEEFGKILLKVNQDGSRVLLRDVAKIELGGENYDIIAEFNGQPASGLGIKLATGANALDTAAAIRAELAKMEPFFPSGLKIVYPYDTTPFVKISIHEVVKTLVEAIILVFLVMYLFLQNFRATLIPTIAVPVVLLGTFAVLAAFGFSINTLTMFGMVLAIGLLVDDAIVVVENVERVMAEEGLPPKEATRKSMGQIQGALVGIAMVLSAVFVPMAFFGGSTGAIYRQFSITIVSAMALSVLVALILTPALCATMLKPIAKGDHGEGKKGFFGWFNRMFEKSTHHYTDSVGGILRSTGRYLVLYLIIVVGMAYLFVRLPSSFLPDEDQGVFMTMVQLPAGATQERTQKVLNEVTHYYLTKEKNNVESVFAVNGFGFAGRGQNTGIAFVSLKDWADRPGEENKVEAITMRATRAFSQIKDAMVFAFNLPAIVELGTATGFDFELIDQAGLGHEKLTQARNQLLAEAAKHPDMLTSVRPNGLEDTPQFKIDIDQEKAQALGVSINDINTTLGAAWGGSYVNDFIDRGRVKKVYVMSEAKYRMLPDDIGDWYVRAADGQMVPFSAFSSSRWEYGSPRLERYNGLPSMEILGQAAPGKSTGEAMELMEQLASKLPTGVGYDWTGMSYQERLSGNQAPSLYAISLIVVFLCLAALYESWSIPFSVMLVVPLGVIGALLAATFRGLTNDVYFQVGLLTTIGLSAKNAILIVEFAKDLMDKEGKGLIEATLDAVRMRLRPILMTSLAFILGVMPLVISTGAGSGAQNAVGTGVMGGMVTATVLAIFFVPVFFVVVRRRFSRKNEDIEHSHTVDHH
In words: Inhibition of Escherichia coli BW25113 AcrB assessed as inhibition of nile red efflux at 50 uM incubated for 15 mins.

Assay [8] concerns Escherichia coli. Briefly: Synergistic antibacterial activity against wild type Escherichia coli BW25113 assessed as erythromycin MIC at 128 microg/ml incubated for 18 hrs by broth dilution assay. In kind it is functional. The following applies: dose 128 µg/ml.
Assay [9] has as its system Escherichia coli. In words: Synergistic antibacterial activity against wild type Escherichia coli BW25113 assessed as fold decrease in levofloxacin MIC at 64 microg/ml incubated for 18 hrs by checkboard based microplate reader analysis. The assay is classed as functional. The settings on record: dose 64 µg/ml.
Assay [10] relates to Escherichia coli. In words: Synergistic antibacterial activity against wild type Escherichia coli BW25113 assessed as fold decrease in erythromycin MIC at 8 to 128 microg/ml incubated for 18 hrs by checkboard based microplate reader analysis. The assay is classed as functional. The following applies: dose 8-128 µg/ml.
The subject of assay [11] is Escherichia coli. In words: Synergistic antibacterial activity against wild type Escherichia coli BW25113 assessed as levofloxacin MIC at 1 microg/ml incubated for 18 hrs in presence of colistin by broth dilution assay. The assay is classed as functional. The settings on record: dose 1 µg/ml.
In assay [12] the test system is Escherichia coli. Briefly: Synergistic antibacterial activity against wild type Escherichia coli BW25113 assessed as minocycline MIC at 0.5 microg/ml incubated for 18 hrs in presence of colistin by broth dilution assay. The assay is classed as functional. The settings on record: dose 0.5 µg/ml.
The test system of assay [13] is Escherichia coli. Briefly: Synergistic antibacterial activity against wild type Escherichia coli BW25113 assessed as erythromycin MIC at 2 microg/ml incubated for 18 hrs in presence of colistin by broth dilution assay. The assay is classed as functional. The settings on record: dose 2 µg/ml.
Assay [14] relates to Escherichia coli. In words: Synergistic antibacterial activity against wild type Escherichia coli BW25113 assessed as erythromycin MIC at 1 microg/ml incubated for 18 hrs in presence of colistin by broth dilution assay. In kind it is functional. The following applies: dose 1 µg/ml.
For assay [15], the system named is Escherichia coli. In words: Synergistic antibacterial activity against wild type Escherichia coli BW25113 assessed as fold decrease in erythromycin MIC at 128 microg/ml incubated for 18 hrs by checkboard based microplate reader analysis. The settings on record: dose 128 µg/ml. The assay is classed as functional.
The subject of assay [16] is Escherichia coli. Briefly: Synergistic antibacterial activity against wild type Escherichia coli BW25113 assessed as levofloxacin MIC at 2 microg/ml incubated for 18 hrs in presence of colistin by broth dilution assay. The settings on record: dose 2 µg/ml. The assay is classed as functional.
For assay [17], the system named is Escherichia coli. Briefly: Synergistic antibacterial activity against wild type Escherichia coli BW25113 assessed as erythromycin MIC at 0.5 microg/ml incubated for 18 hrs in presence of colistin by broth dilution assay. In kind it is functional. The settings on record: dose 0.5 µg/ml.
The subject of assay [18] is Escherichia coli. Briefly: Synergistic antibacterial activity against wild type Escherichia coli BW25113 assessed as minocycline MIC at 1 microg/ml incubated for 18 hrs in presence of colistin by broth dilution assay. In kind it is functional. The settings on record: dose 1 µg/ml.
In assay [19] the test system is Escherichia coli. In words: Synergistic antibacterial activity against wild type Escherichia coli BW25113 assessed as fold decrease in erythromycin MIC at 8 microg/ml incubated for 18 hrs by checkboard based microplate reader analysis. In kind it is functional. The settings on record: dose 8 µg/ml.
Assay [20] deals with T1, Multidrug efflux pump subunit AcrB (Escherichia coli (strain K12)). In words: Inhibition of Escherichia coli BW25113 AcrB assessed as inhibition of nile red efflux at 200 uM incubated for 15 mins.
Assay [21] concerns Escherichia coli. In words: Synergistic antibacterial activity against wild type Escherichia coli BW25113 assessed as erythromycin MIC at 4 microg/ml incubated for 18 hrs in presence of colistin by broth dilution assay. In kind it is functional. The settings on record: dose 4 µg/ml.
Assay [22] relates to Escherichia coli. Briefly: Synergistic antibacterial activity against wild type Escherichia coli BW25113 assessed as levofloxacin MIC at 128 microg/ml incubated for 18 hrs in presence of colistin by broth dilution assay. In kind it is functional. The settings on record: dose 128 µg/ml.
Assay [23] concerns Escherichia coli. Briefly: Synergistic antibacterial activity against wild type Escherichia coli BW25113 assessed as fold decrease in minocycline MIC at 64 microg/ml incubated for 18 hrs by checkboard based microplate reader analysis. In kind it is functional. The settings on record: dose 64 µg/ml.
Assay [24] has as its system Escherichia coli. Briefly: Synergistic antibacterial activity against wild type Escherichia coli BW25113 assessed as erythromycin MIC at 128 microg/ml incubated for 18 hrs in presence of colistin by broth dilution assay. In kind it is functional. The settings on record: dose 128 µg/ml.

Calls of active or inactive are those of the source. No cut-off for these calls is given here.

For the compound `CC1(C)CCc2c(C(=O)N3CCOCC3)cc3c(OCCCOc4cccc(C(=O)O)c4)cccc3c2O1`, the “fold change (FC)” value with Escherichia coli [1], in the assay on Escherichia coli [3], in the assay on Escherichia coli [4] and in the assay on Escherichia coli [9] was 4 throughout. Moreover, the MIC – broadly, the least concentration at which growth counts as inhibited – with Escherichia coli [2] amounted to 0.5 µg/mL; with Escherichia coli [5], 0.032 µg/mL; with Escherichia coli [6] it was 16 µg/mL; in the assay on Escherichia coli [8], 16 µg/mL. The inhibition (usually the relative decrease from the control value, in per cent) in assay [7] was “Active”.

Consider `CC1(C)CCc2c(C(=O)N3CCOCC3)cc3c(OCCN4CCN(c5ccccc5)CC4)cccc3c2O1`, for which the “fold change (FC)” value in the assay with Escherichia coli [10] was determined as 16; in the assay on Escherichia coli [15] it was 4. For the same compound, the MIC was determined as 0.032 µg/mL in the assay on Escherichia coli [11]; 1 µg/mL in the assay on Escherichia coli [12]; 8 µg/mL with Escherichia coli [13]; 16 µg/mL with Escherichia coli [14]; 0.032 µg/mL with Escherichia coli [16]; 32 µg/mL in the assay on Escherichia coli [6]. Besides, the figures for the MIC with Escherichia coli [17], with Escherichia coli [8] and with Escherichia coli [18] were 16 µg/mL, 16 µg/mL and 0.5 µg/mL, respectively. Besides, the inhibition result in assay [7] was “Active”.

With `CC1(C)CCc2c(C(=O)N3CCOCC3)cc3c(OCCSc4ccc([N+](=O)[O-])cc4)cccc3c2O1`, the “fold change (FC)” value in the assay on Escherichia coli [19] amounted to 4. Besides, the MIC in the assay on Escherichia coli [2] is 1 µg/mL; with Escherichia coli [5], 0.032 µg/mL; in the assay with Escherichia coli [6], 16 µg/mL; in the assay with Escherichia coli [21], 8 µg/mL; with Escherichia coli [8], 16 µg/mL. For the same compound, in [20], the inhibition amounted to 100%.

On to `COc1ccc(OCCCOc2cccc3c4c(c(C(=O)N5CCOCC5)cc23)CCC(C)(C)O4)cc1`, for which the MIC in the assay with Escherichia coli [22] came out at 0.032 µg/mL; in the assay with Escherichia coli [6], 16 µg/mL; in the assay on Escherichia coli [8] it was 8 µg/mL; with Escherichia coli [24], 8 µg/mL. Further, the “fold change (FC)” value with Escherichia coli [15] is 8; in the assay on Escherichia coli [23], 4. In addition, the inhibition result in assay [7] was “Active”.
